We go through four molecules from EP4786454A1, “HETEROARYL DERIVATIVE AND USE THEREOF” (priority 2023, dated 2025).

A short description of data set [1]: Plasma protein binding rate, equilibrium dialysis (rat plasma). The following applies: r (Sprague-Dawley rat plasma), dialysis 4 hours at 37 °C, read-out: Unbound PPB%. Format: in vitro ADME, Sprague-Dawley rats. The procedure: (§1) The protein binding rates of the compounds in the plasma of CD-1 mice, Sprague-Dawley rats, beagle dogs, cynomolgus monkeys, and human were determined using equilibrium dialysis method.
(§2) Commercially available plasma, dual-layer dialysis membrane, and equilibrium dialysis device.
(§3) The dual-layer dialysis membrane was soaked in ultrapure water for about 1 hour, removed and then divided into two parts. It was then soaked in an ethanol:water (20:80, v:v) solution for 20 minutes or placed at 2 to 8 °C, and it was valid for 1 month. Before starting the assay, the dialysis membrane was rinsed twice with ultrapure water and then soaked in ultrapure water for another 20 minutes for later use.
(§4) On the day of assay, the frozen plasma of CD-1 mice, Sprague-Dawley rats, beagle dogs, cynomolgus monkeys, and human was thawed in running cold tap water. After the plasma was completely thawed, the plasma was centrifuged at 3220×g for 5 minutes, and the suspended substances and precipitates in it were removed. The pH of the plasma was determined. The plasma with a pH in the range of 7.4 ± 0.1 was directly used, or the plasma with a pH in the range of 7.4 ± 0.1 after an adjustment with 1% phosphoric acid or 1M sodium hydroxide was used.
(§5) Preparation process of plasma samples: 597 µL of blank plasma from each of the above five species was taken, respectively. 3 µL of a compound or warfarin working solution was added, and the mixture was mixed thoroughly to give a plasma sample with a compound concentration of 2 µM and a warfarin concentration of 2 µM (n=1). The concentration of the organic phase DMSO was 0.5%. The sample was thoroughly mixed before proceeding to the next step.
(§6) Preparation process of T0 samples: 50 µL of a plasma sample containing the compound and warfarin was transferred to a sample receiving plate (n=3), and 50 µL of blank PBS was immediately added. Then, 500 µL of stop solution was added to the T0 sample of the compound and warfarin, and the mixture was stored at 2 to 8 °C, waiting to be processed later together with other dialysis-processed samples.
(§7) Dialysis process of plasma samples: 100 µL of a compound (2 µM) and warfarin (2 µM) plasma sample was added to the donor of each dialysis well (n=3), and 100 µL of blank PBS was added to the corresponding receiver of the dialysis well. The dialysis plate was placed in a 5% CO2 incubator, and incubated at 37 °C with shaking at approximately 100 rpm for 4 hours.
(§8) After the dialysis was completed, 50 µL of dialysis-processed PBS sample and dialysis-processed plasma sample (n=3) were transferred to a new 96-well plate (sample receiving plate). The corresponding volume of the corresponding blank plasma or PBS was added to the sample to make the final volume of each sample well 100 µL, with a plasma to PBS volume ratio of 1:1. All the samples were analyzed by LC-MS/MS after protein precipitation.
(§9) The formulas for calculating the unbound fraction (%Unbound), bound fraction (%Bound) and recovery fraction (%Recovery) of a compound are as follows: %Unbound = 100 ×F / T %Bound = 100 - %Unbound %Recovery = 100 ×(F + T)/ T0 wherein F is the concentration of the compound at the receiver of dialysis; T is the concentration of the compound at the supply end of dialysis; and T0 is the concentration of the compound in the plasma at time zero.

A short description of data set [2]: Plasma protein binding rate, equilibrium dialysis (mouse plasma). Format: in vitro ADME, CD-1 mice. The settings on record: m (CD-1 mouse plasma), dialysis 4 hours at 37 °C, read-out: Unbound PPB%. The procedure:
as §1, §2, §3, §4, §5, §6, §7, §8, §9
(In general: Equilibrium dialysis compares concentrations on both sides of a semipermeable membrane.)

A short description of data set [3]: Kinetic solubility in 50 mM phosphate buffer, LC-UV. The following applies: room temperature, 24 hours. Format: physicochemical. The procedure: The purpose of this assay was to determine the kinetic solubility of the compounds after incubation at room temperature in a 50 mM phosphate buffer solution with a pH of 2.0, 6.5, and 7.4 for 24 hours using a direct ultraviolet method.
10 µL of DMSO stock solutions of a test compound and control compound were added to a 96-well plate. 490 µL of the test medium was added to the 96-well plate, respectively. The plate was sealed, and vortexed for 2 minutes. The incubation concentration of a sample was 200 µM, wherein, DMSO accounted for 2%. The 96-well plate was placed on a shaker, and incubated at room temperature and 800 rpm for 24 hours to reach dissolution equilibrium. After the incubation, the sample was put into a centrifuge, and centrifuged at 25 °C and 4000 rpm for 10 minutes. The supernatant from the centrifuged sample was transferred to a filter plate, centrifuged at 4000 rpm for 5 minutes, and filtered to give filtrate. The concentration of the filtrate was analyzed using linear quantitative analysis with LC-UV (the sample was diluted as needed).
Data of the assay were acquired and processed using Empower software. Linear regression analysis was performed by plotting the relationship between the peak area and their concentrations in µM.

A short description of data set [4]: Plasma protein binding rate, equilibrium dialysis (dog plasma). The data set is classed as in vitro ADME, beagle dogs. The following applies: d (beagle dog plasma), dialysis 4 hours at 37 °C, read-out: Unbound PPB%. The procedure: as §1, §2, §3, §4, §5, §6, §7, §8, §9

Consider `CC(C)(C)CC(=O)Nc1nc2c(F)cc(C#N)cn2c1C12CC(C1)C2` [Compound 5], for which the fraction unbound at 4 h, 2 µM was 0.166 in data set [1], 0.141 in data set [2] and 0.278 in data set [4]. The KSY in data set [3] (pH 2.0, 50 mM phosphate buffer) worked out at 4.46 µg/mL; in data set [3] (pH 6.5, 50 mM phosphate buffer), 4.57 µg/mL; in data set [3] (pH 7.4, 50 mM phosphate buffer) it was 4.79 µg/mL.

Take `CC(C)(C)CC(=O)Nc1nc2c(F)cc(C#N)cn2c1C1=CCCC1` [Compound 3]: the results for the fraction unbound at 4 h, 2 µM in data set [1], in data set [2] and in data set [4] were 0.097, 0.087 and 0.203, respectively. Besides, the KSY is recorded as 3.78 µg/mL in data set [3] (pH 2.0, 50 mM phosphate buffer); 3.68 µg/mL in data set [3] (pH 6.5, 50 mM phosphate buffer); 4.43 µg/mL in data set [3] (pH 7.4, 50 mM phosphate buffer).

Turning to `CC(C)(C)CC(=O)Nc1nc2c(F)cc(C#N)cn2c1-c1ccc(OC(F)(F)F)cc1` [Compound 1], the fraction unbound at 4 h, 2 µM in data set [1] turned out to be 0.071; in data set [2], 0.047; in data set [4], 0.046.

Regarding `CC(C)(C)CC(=O)Nc1nc2c(C(F)(F)F)cc(C#N)cn2c1C12CC(C1)C2` [Compound 6], the KSY in data set [3] (pH 2.0, 50 mM phosphate buffer) amounted to 21.7 µg/mL; in data set [3] (pH 6.5, 50 mM phosphate buffer) it was 20.9 µg/mL; in data set [3] (pH 7.4, 50 mM phosphate buffer), 21.4 µg/mL.
